Several values for one entry are separate records, joined by “and”; a condition that tells them apart may be missing. Equal values may be shown once. Entries after “also recorded” stand apart in the source; their conditions may differ. No end group written: not given here.
How the values were obtained:
PepF [1] = assay: Screening of sXIP variants for susceptibility to PepF degradation; type: in vitro ADME, Streptococcus salivarius HSISS4; details: for percentage of signal loss: peptide 500 nM pre-incubated with PepF 7 nM, 4 h, 37°C vs without PepF, PcomS-luxAB ΔcomS reporter luminescence, mean of technical triplicates; for peptidase resistance in the screening: PepF 7 nM, peptide 500 nM, signal loss compared with native XIP
Procedure: We next investigated which residues of the pheromone are crucial for peptidase cleavage and screened 20 peptides variants with single XIP mutations. We incubated those peptides with PepF at a mid-range concentration previously identified for the native XIP ([PepF] of 7 nM and [XIP] of 500 nM). Next, we added the peptides incubated or not with PepF to the PcomS-luxAB ΔcomS reporter strain and analyzed the percentage of signal loss upon incubation with the peptidase. […] To quantify more accurately the PepF resistance of variants at those two positions, we used the same degradation assay as used for native sXIP and measured the EC50 for each variant (Figs 5A and S5). Since F4W, F4Y and A5I variants were the most resistant, we combined mutations at positions 4 and 5 in a single peptide to increase its robustness to degradation. […] Because our degradation assay is based on an indirect method of quantification through the use of a reporter strain, bias could be introduced by the effect of the mutations on the ComR-pheromone affinity. To rule out this possibility, we measured the ComR-binding properties of the peptides by electrophoretic mobility shift assays (S6 Fig). Since no correlation between peptide-binding to ComR and pheromone sensitivity to degradation could be drawn, we concluded that the luciferase degradation assay reflects the peptide susceptibility to PepF.
Supplementary file pgen.1010198.s004.tif: S4 Fig Screening of sXIP variants for competence activation and susceptibility to PepF degradation. Specific maximum luciferase activity (RLU/OD600) upon peptide addition is plotted against the loss of signal with the peptide pre-incubated with PepF (plotted as a percentage of signal loss). A total number of 20 sXIP variants of the native S. salivarius sXIP (LPYFAGCL) were tested. The different peptides (500 nM) were incubated during 4 h at 37°C with or without PepF (7 nM). The reaction mixture was then 10-fold diluted by addition to an exponential growing culture (CDM) of the reporter strain defective for the genetically-encoded pheromone XIP (PcomS-luxAB ΔcomS). Dots represents mean of technical triplicates. […] Red/blue dots denote peptides discarded/selected for subsequent characterization due to their weak/strong induction of competence. (TIF) Click here for additional data file.

PepF [2] = assay: recombinant PepF in reaction buffer (20 mM Tris HCl, pH 7.0); details: S. salivarius HSISS4, 37°C, up to 4 h
PepF [3] = biological target: PepF (Streptococcus salivarius K12, UniProt J7TQB7); type: in vitro ADME, Streptococcus salivarius HSISS4; details: PepF gradient, peptide 500 nM, 4 h, 37°C
Sequence of PepF (Streptococcus salivarius K12, UniProt J7TQB7) (J7TQB7 entry or part of it): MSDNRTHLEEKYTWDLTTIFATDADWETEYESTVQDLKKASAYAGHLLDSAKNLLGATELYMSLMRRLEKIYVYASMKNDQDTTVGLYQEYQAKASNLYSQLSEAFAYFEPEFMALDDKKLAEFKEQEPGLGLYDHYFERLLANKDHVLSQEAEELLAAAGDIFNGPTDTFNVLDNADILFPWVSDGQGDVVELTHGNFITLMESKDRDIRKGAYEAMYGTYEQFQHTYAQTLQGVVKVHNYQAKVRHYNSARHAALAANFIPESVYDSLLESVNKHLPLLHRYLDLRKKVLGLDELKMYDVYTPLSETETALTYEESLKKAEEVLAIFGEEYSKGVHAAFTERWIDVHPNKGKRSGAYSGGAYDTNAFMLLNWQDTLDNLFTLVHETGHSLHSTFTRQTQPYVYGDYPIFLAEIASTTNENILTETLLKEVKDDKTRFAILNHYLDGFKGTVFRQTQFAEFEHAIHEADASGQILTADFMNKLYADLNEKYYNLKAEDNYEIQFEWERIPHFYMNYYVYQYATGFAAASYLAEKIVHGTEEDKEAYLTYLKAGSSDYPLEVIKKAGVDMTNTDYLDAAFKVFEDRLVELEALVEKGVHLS
Procedure: (§1) Overnight precultures were diluted at a final OD600 of 0.05. A volume of 300 μL of culture samples was transferred in the wells of a sterile covered white microplate with a transparent bottom (Greiner, Alphen a/d Rijn, The Netherlands). These culture samples were supplemented with D-xylose or IPTG if stated or further incubated for 100 min at 37°C before supplementation with sXIP or other peptides variants. Growth (OD600) and luciferase (Lux) activity (expressed in relative light units, RLU) were monitored at 10 min intervals during 6 to 24 h in a Hidex Sense microplate reader (Hidex, Lemminkäisenkatu, Finland). Specific or maximum specific Lux activity were obtained by dividing Lux activity by the OD600 for each measurement and summing all the data obtained over time or selecting the maximum value, respectively. Biological or technical triplicates were then averaged. Statistical analyses of simple and multiple comparisons to the control mean were performed with t-test (unilateral distribution, heteroscedastic) and one-way ANOVA with Dunnett’s test, respectively. For both, standard deviations and P values were calculated.
For PepF purification, the PCR-amplified pepF gene from strain HSISS4 was cloned into the pBAD-covR-STN-ter vector [24]. […] Protein purity was analyzed by SDS-PAGE and concentration was measured using a Nanodrop apparatus (A280 method; ThermoFisher Scientific). […]

PepF [4] = assay: Kinetics of peptide degradation by PepF; type: in vitro ADME, Streptococcus salivarius HSISS4; details: PepF 8 nM, peptide 500 nM, 6 h, 37°C
Procedure: Fig 5 Degradation of PepF-resistant sXIP peptides. (A) PepF degradation efficiency for XIP (LPY[F/Y/W][A/M/I/V]GCL) variants. […] Bars denote standard deviations on the EC50 computation. (B) XIP and XIPF4WA5I kinetics of degradation by PepF. PepF (8 nM) and the peptides (500 nM) were incubated 6 hours at 37°C and sampled every hour for analysis. Reaction was stopped by adding 1 mM EDTA and further added to the PcomS-luxAB ΔcomS reporter strain as previously described. Dots show technical triplicates, the line connects mean values with error bars (standard deviation).
(§2) sXIP and derivatives were incubated at 500 nM with PepF at different concentrations ranging from 100 to 0.025 nM during 4 h at 37°C as described in the previous section. 30 μL of the mix was then added to 270 μL of exponential phase culture of a PcomS reporter strain defective for the pheromone (PcomS-luxAB ΔcomS) and maximum luciferase activity was computed as reported above. Maximum values obtained were normalized by the signal recorded for the peptide incubated without the peptidase and enzyme concentration affording half luminescence (EC50) was extrapolated using Graphpad Prism and the non-linear extrapolation equation: Signal=b+(t−b)/(1+IC50/[PepF]^HS) where t stands for top, b for bottom, and HS for Hill-Slope.

PepFSsa = type: in vitro ADME, Streptococcus salivarius HSISS4; details: from EC50 values
Procedure: as §2
Supplementary file pgen.1010198.s009.tif: S9 Fig Conservation of PepF in salivarius streptococci and susceptibility of S. vestibularis sXIP to PepF degradation. (A) Alignment of PepF performed with CLC Main Workbench multiple alignment tool (http://www.clcbio.com/products/clc-main-workbench/). PepF from 4 representative strains (i.e. S. salivarius HSISS4, S. thermophilus LMD-9, S. thermophilus LMG18311 and S. vestibularis NTC12167) were used for the alignment. Red, orange, and yellow denote 100%, 75%, and 50% conservation, respectively. The conserved Zinc-binding motif HEXXH is underlined. […]

[5] = test system: PcomS-luxAB ΔcomS reporter strain; assay: Screening of sXIP variants for competence activation; type: cell-based, Streptococcus salivarius; details: peptide 500 nM incubated 4 h 37°C without PepF, 10-fold diluted into PcomS-luxAB ΔcomS culture (CDM); mean of technical triplicates
Procedure: as §1
Supplementary file pgen.1010198.s004.tif: S4 Fig Screening of sXIP variants for competence activation and susceptibility to PepF degradation. […]

Substance | percentage of signal loss (PepF [1]) | other results
APYFAGCL [APYFAGCL] | 87.3461% and 90.7518% | 
APYFMGCL [APYFMGCL] | 99.0138% | 
ITILPYFAGCL [ITILPYFAGCL] | 99.5087% | 
LAYFAGCL [LAYFAGCL] | 40.0979% | 
LPAFAGCL [LPAFAGCL] | 83.5452% | 
LPWFAGCL [LPWFAGCL] | 97.3022% | 
LPYAAGCL [LPYAAGCL] | 77.0857% | 
LPYFAACL [LPYFAACL] | 99.6712% | 
LPYFAGAL [LPYFAGAL] | 99.8977% | 
LPYFAGCL |  | cleaved bond (PepF [2]): F4-A5, major; also recorded: A5-G6, major
LPYFAGCL [sXIP, reference compound] | 99.5932% | 
LPYFAICL [LPYFAICL] | 1.804% | 
LPYFGGCL [LPYFGGCL] | 69.5765% | 
LPYFIGCL [LPYFIGCL] | 78.4996% | peptidase resistance in the screening (PepF [1]): higher peptidase resistance
LPYFMGCL [LPYFMGCL] | 85.0947% | peptidase resistance in the screening (PepF [1]): higher peptidase resistance
LPYFMICL [LPYFMICL] | 10.0484% | 
LPYFTGCL [LPYFTGCL] | 97.3896% | 
LPYFVGCL [LPYFVGCL] | 94.8201% | 
LPYWAGCL [LPYWAGCL] | 68.1634% | peptidase resistance in the screening (PepF [1]): higher peptidase resistance
LPYWIGCL [LPYWIGCL] |  | proteolysis by PepF in vitro (PepF [3]): slower proteolysis; degradation kinetics compared to the WT pheromone (PepF [4]): reduced degradation kinetics
LPYYAGCL [LPYYAGCL] | 89.6196% | peptidase resistance in the screening (PepF [1]): higher peptidase resistance
LPYYIGCL [LPYYIGCL] |  | proteolysis by PepF in vitro (PepF [3]): slower proteolysis
VPFFMIYY [sXIPSve] |  | PepF-mediated degradation, fold less efficient compared to XIPSsa/Sth (PepFSsa): ~ 15 fold
_PYFAGCL [sXIP variant of the screening lacking the first residue] |  | Max specific luciferase [5]: 1453.53 RLU/OD600
_PYFMGCL [sXIP variant of the screening lacking the first residue] | 28.6586% | Max specific luciferase [5]: 2144.5 RLU/OD600

Reference: PMC9173638 (PLoS Genetics, 2022)
